Laboratory results published in US20220194938A1, “NOVEL COMPOUNDS AND PHARMACEUTICAL COMPOSITIONS THEREOF FOR THE TREATMENT OF INFLAMMATORY DISORDERS” (GALAPAGOS NV, priority 2019, published 2022).
Converted amounts (≈) assume the structure as drawn. “And” between values parts separate entries of the source, which are not always exact repeats. Equal values may be shown once. Read-outs that look alike come from different tables or passages of the source.

What was measured:
Thermodynamic solubility = format: physicochemical; details: 37° C.; for solubility thermodynamic at 24 h: thermodynamic from solid
Excerpt: 4.2. Thermodynamic Solubility
Poor solubility, in particular poor thermodynamic solubility can limit the absorption of compounds from the gastrointestinal tract which in turn may reduce oral bioavailability.
Thermodynamic solubility investigates the solubility of a compound as a saturated solution in equilibrium, by opposition to kinetic solubility, which measures the solubility of a metastable solution where supersaturation may occur and provide over estimation of the actual solubility of the compound. (Klein 2010)
4.2.1. Thermodynamic Solubility—Protocol 1
(§1) In a 8 mL glass vial, 1-2 mg of dry matter of compound are added and stirred with the suitable buffers (Fed State Simulated Intestine Fluid, FeSSIF, or Fasted State Simulated Intestine Fluid, FaSSIF, or Fasted State Simulated Gastric Fluid, FaSSGF, or phosphate buffer pH 7.4) for 24 h at r.t. (for the buffer pH 7.4) or 37° C. (for the GI fluids). The concentration of the mixture is 1 mg/mL.
A volume of 500 μL are sampled, centrifuged for 10 min at 10 000 rpm and filtered. The samples are diluted in duplicates in DMSO (F100 and F10). Then, a final dilution (F100) in 80/20 H2O/MeCN containing the internal standard (warfarin) is used for LCMS-MS analysis.
A standard curve is made starting from a 200,000 ng/mL stock in DMSO, freshly prepared from dry matter. Then, successive concentrations at […], 1,000, 200 and 75 ng/mL in DMSO are prepared by using the Tecan robot.
Two quality control samples are made: one of 10,000 ng/mL and one of 500 ng/mL in DMSO, also starting from the DMSO working stock solution at 200,000 ng/mL.
The standard curve and quality controls are diluted a F100 in 80/20 H2O/MeCN (with internal standard) and analyzed on LC/MS-MS (API4000 or API5500).
(§2) The samples are analyzed on LC-MS with a flow rate of 0.6 mL/min. The mobile phase A is 0.1% formic acid in water and the mobile phase B is 0.1% formic acid in MeCN. The sample is run under positive or negative ion spray on Pursuit C18-5 μm (2.0×20 mm) column, from Agilent.
The peak areas of the standard curve are plotted in a graph and a linear or polynomial of the second order equation is used to calculate the unknown concentrations of the test compound.
4.2.2. Thermodynamic Solubility—Protocol 2
as §1, with “In an” for “In a”, “compound were” for “compound are”, “mixture was” for “mixture is”
A volume of 1000 μL were sampled, centrifuged for 10 min at 10 000 rpm and 500 μL of the supernatant were filtered on captiva plate. The samples were diluted in duplicates in DMSO (F100 and F10). Then, a final dilution (F100) in 80/20 H2O/MeCN containing the internal standard (warfarin) was used for LCMS-MS analysis.
A standard curve was made starting from a 40,000 ng/mL stock in DMSO, freshly prepared from dry matter. Then, successive concentrations at 15,000, 11,000, 6,000, 2,500, 1,000, 375, 150 and 75 ng/mL in DMSO were prepared.
Three quality control samples were made: one of 10,000, 1,500 and 200 ng/mL in DMSO, also starting from the DMSO working stock solution at 40,000 ng/mL.
The standard curve and quality controls were diluted a F100 in 80/20 H2O/MeCN (with internal standard) and analyzed on LC/MS-MS (API4000 or API5500).
as §2, with “were” for “are”, “was” for “is”, “90% acetonitrile and 10% of water.” for “MeCN.”, “Agilent. […]” for “Agilent.”

[1] = test system: pooled cryopreserved hepatocytes; test: Metabolic stability in hepatocytes (mouse); format: in vitro ADME; details: 1 μM test compound
Protocol: 4.6. Metabolic Stability in Hepatocytes
The aim of this assay is to determine the metabolic stability of the compound in hepatocytes (cryopreserved) of different species. Low hepatocyte stability may result in the formation of unwanted metabolites, high clearance, and therefore is not desirable.
The decrease in parent was assessed by measuring the percentage remaining by LC-MS/MS analysis.
A 10 mM stock solution of test compound in DMSO was first diluted in DMSO to 3 mM, and then in modified Krebs-Henseleit buffer (Sigma, K3753) to 5 μM. This compound dilution was added to a suspension of pooled cryopreserved hepatocytes (BioreclamationIVT) at 37° C. under gentle shaking.
Final reaction conditions were: 1 μM of test compound, 0.03% DMSO, 0.5 million viable hepatocytes/mL, and 75 μL incubation volume.
Testosterone (1 μM) and 7-hydroxycoumarin (1 μM) were used, respectively as phase I and phase II metabolic reaction controls.
After 0, 10, 20, 45, 90, 120 and 180 min of incubation, the reaction was terminated with 225 μL of MeCN:MeOH (2:1) containing 100 ng/mL of diclofenac as analytical internal standard. Samples were mixed, centrifuged and the supernatant analyzed by LC-MS/MS.
The instrument responses (ratios of test compound and internal standard peak areas) were referenced to the zero time point samples (considered as 100%) in order to determine the percentage of compound remaining.
Plots of percentage compound remaining are used to determine the intrinsic clearance in the hepatocyte incubations using the following equations:
Scaled Clint[L/h/kg]=Clint[μL/min/10^6 cells]*#(10^6) cells/g liver*60*(1/10^6) Scaled Clint unbound [L/h/kg]=Clint [L/h/kg]/Fu,inc where: fu,inc equals hepatocyte binding, derived from microsomal binding (fu,mic) by following equation: […]

[2] = Fasted State Simulated Intestine Fluid (FaSSIF), fassif, Fasted State Simulated Intestine Fluid, read-out: Tsol FaSSIF
[3] = Fasted State Simulated Gastric Fluid (FaSSGF), fassgf or other biorelevant, Fasted State Simulated Gastric Fluid, read-out: Tsol FaSSGF
[4] = Fed State Simulated Intestine Fluid (FeSSIF), fessif, Fed State Simulated Intestine Fluid, read-out: Tsol FeSSIF

| solubility thermodynamic at 24 h (Thermodynamic solubility; [2]) | Mouse (Perc. remaining at 90 min) [1] | solubility thermodynamic at 24 h (Thermodynamic solubility; [3]) | solubility thermodynamic at 24 h (Thermodynamic solubility; [4]) | Tsol FaSSGF (Thermodynamic solubility; Fasted State Simulated Gastric Fluid, 24 h) | Tsol FaSSIF (Thermodynamic solubility; Fasted State Simulated Intestine Fluid, 24 h) | Structure (SMILES) |
| --- | --- | --- | --- | --- | --- | --- |
| 2.63 µg/mL (≈ 6.29 µM) | 75.2% | – | – | – | – | COc1cc2nc(CCC(C)(C)O)cn2cc1NC(=O)c1cccc(C(C)(F)F)n1 [Compound 20, 6-(1,1-difluoroethyl)-N-[2-(3-hydroxy-3-methyl-butyl)-7-methoxy-imidazo[1,2-a]pyridin-6-yl]pyridine-2-carboxamide] |
| – | 96.3% | – | – | – | – | [2H]C([2H])([2H])NC(=O)c1cc2nc(CCC(C)(C)O)cn2cc1NC(=O)c1cccc(C(F)(F)F)n1 [Compound 1, 2-(3-hydroxy-3-methyl-butyl)-N-(trideuteriomethyl)-6-[[6-(trifluoromethyl)pyridine-2-carbonyl]amino]imidazo[1,2-a]pyridine-7-carboxamide] |
| 188 µg/mL (≈ 447 µM) | 88.1% | > 1000 µg/mL | – | – | – | COc1cc2nc(CCC(C)(C)O)cn2cc1NC(=O)c1cccn(C(F)F)c1=O [Compound 12, 1-(difluoromethyl)-N-[2-(3-hydroxy-3-methyl-butyl)-7-methoxy-imidazo[1,2-a]pyridin-6-yl]-2-oxo-pyridine-3-carboxamide] |
| 692 µg/mL (≈ 1880 µM) | 4.5% | – | – | – | – | COc1cc2nc(CCC(C)(C)O)cn2cc1NC(=O)c1cccc(C)n1 [Compound 6, N-[2-(3-hydroxy-3-methyl-butyl)-7-methoxy-imidazo[1,2-a]pyridin-6-yl]-6-methyl-pyridine-2-carboxamide] |
| 41.5 µg/mL (≈ 96.4 µM) | 95.05% | – | – | – | – | COc1cc2nc(CCS(C)(=O)=O)cn2cc1NC(=O)c1cccn(C2CC2)c1=O [Compound 25, 1-cyclopropyl-N-[7-methoxy-2-(2-methylsulfonylethyl)imidazo[1,2-a]pyridin-6-yl]-2-oxo-pyridine-3-carboxamide] |
| 253 µg/mL (≈ 596 µM) | 60.9% | – | – | – | – | COc1cc2nc(CCC(C)(C)O)cn2cc1NC(=O)c1cccn(C2CCC2)c1=O [Compound 18, 1-cyclobutyl-N-[2-(3-hydroxy-3-methyl-butyl)-7-methoxy-imidazo[1,2-a]pyridin-6-yl]-2-oxo-pyridine-3-carboxamide] |
| 2.44 µg/mL (≈ 5.52 µM) | 46% | > 1000 µg/mL | – | – | – | COc1cc2nc(CCS(C)(=O)=O)cn2cc1NC(=O)c1cccc(C(F)(F)F)n1 [Compound 24, N-[7-methoxy-2-(2-methylsulfonylethyl)imidazo[1,2-a]pyridin-6-yl]-6-(trifluoromethyl)pyridine-2-carboxamide] |
| 8.56 µg/mL (≈ 22.3 µM) | 26.4% | – | – | – | – | COc1cccc(C(=O)Nc2cn3cc(CCC(C)(C)O)nc3cc2OC)n1 [Compound 8, N-[2-(3-hydroxy-3-methyl-butyl)-7-methoxy-imidazo[1,2-a]pyridin-6-yl]-6-methoxy-pyridine-2-carboxamide] |
| 31.4 µg/mL (≈ 74.3 µM) | 39.9% | 880 µg/mL (≈ 2080 µM) | 360 µg/mL (≈ 852 µM) | – | – | COc1cc2nc(CCC(C)(C)O)cn2cc1NC(=O)c1cccc(C(F)(F)F)n1 [Compound 3, N-[2-(3-hydroxy-3-methyl-butyl)-7-methoxy-imidazo[1,2-a]pyridin-6-yl]-6-(trifluoromethyl)pyridine-2-carboxamide] |
| 125 µg/mL (≈ 325 µM) | 87.75% | 116 µg/mL (≈ 302 µM) | – | – | – | COc1cc2nc(CCC(C)(C)O)cn2cc1NC(=O)c1cccn(C)c1=O [Compound 4, N-[2-(3-hydroxy-3-methyl-butyl)-7-methoxy-imidazo[1,2-a]pyridin-6-yl]-1-methyl-2-oxo-pyridine-3-carboxamide] |
| 600 µg/mL (≈ 1330 µM) | 109.5% | – | – | – | – | COc1cc2nc(CCC(C)(C)O)cn2cc1NC(=O)c1cccn(CC(F)(F)F)c1=O [Compound 13, N-[2-(3-hydroxy-3-methyl-butyl)-7-methoxy-imidazo[1,2-a]pyridin-6-yl]-2-oxo-1-(2,2,2-trifluoroethyl)pyridine-3-carboxamide] |
| 2.97 µg/mL (≈ 6.82 µM) | 96.5% | > 1000 µg/mL | 4.4 µg/mL (≈ 10.1 µM) | – | – | CC(C)(O)CCc1cn2cc(NC(=O)c3cccc(C(F)(F)F)n3)c(C(N)=O)cc2n1 [Compound 31, 2-(3-hydroxy-3-methyl-butyl)-6-[[6-(trifluoromethyl)pyridine-2-carbonyl]amino]imidazo[1,2-a]pyridine-7-carboxamide] |
| 96.8 µg/mL (≈ 232 µM) | – | > 1000 µg/mL | – | – | – | CCOc1c(NC(=O)c2cccn(C)c2=O)cn2cc(CCC(C)(C)O)nc2c1F [Compound 38, N-[7-ethoxy-8-fluoro-2-(3-hydroxy-3-methyl-butyl)imidazo[1,2-a]pyridin-6-yl]-1-methyl-2-oxo-pyridine-3-carboxamide] |
| – | – | > 1000 µg/mL | 20.9 µg/mL (≈ 45.2 µM) | >1000, μg/mL | 7.3 µg/mL and 7.50 µg/mL | CCOc1c(NC(=O)c2cccn(C3CC3)c2=O)cn2cc(CCS(C)(=O)=O)nc2c1F [Compound 39, 1-cyclopropyl-N-[7-ethoxy-8-fluoro-2-(2-methylsulfonylethyl)imidazo[1,2-a]pyridin-6-yl]-2-oxo-pyridine-3-carboxamide] |
| – | 87.15% | – | – | – | – | CCNC(=O)c1cc2nc(CCC(C)(C)O)cn2cc1NC(=O)c1cccc(C(F)(F)F)n1 [Compound 49, N-ethyl-2-(3-hydroxy-3-methylbutyl)-6-(6-(trifluoromethyl)picolinamido)imidazo[1,2-a]pyridine-7-carboxamide] |
| – | 86% | – | – | – | – | CC(C)(O)CCc1cn2cc(NC(=O)c3cccc(C(F)(F)F)n3)c(C(=O)NCC(F)F)cc2n1 [Compound 48, N-(2,2-difluoroethyl)-2-(3-hydroxy-3-methylbutyl)-6-(6-(trifluoromethyl)picolinamido)imidazo[1,2-a]pyridine-7-carboxamide] |
